Results: US20120041030A1, “PYRIDINE THIO DERIVATIVE, AND PHARMACEUTICAL COMPOSITION WHICH CONTAINS SAME AND HAS ANTI-HELICOBACTER PYLORI ACTION” (priority 2009, published 2012)
Converted amounts (≈) assume the structure as drawn. Read-outs that look alike come from different tables or passages of the source.

Columns and labels:
Type in all cases: cell-based
[1] = system: Helicobacter pylori (ATCC 43504); assay: Antibacterial test (MIC) against Helicobacter pylori; conditions: for minimum inhibitory concentration (MIC): Helicobacter pylori ATCC 43504; for MIC: Helicobacter pylori
Experimental: (§1) ATCC43504 which was a standard bacterial strain was used as Helicobacter pylori (H. pylori) to perform the test in vitro in a Columbia agar medium. The bacteria were cultured at 37° C. and a pH of 7.0 for three days. The minimum inhibitory concentration (MIC, μg/ml) was found on the fourth day. Each sample was dissolved in 1% DMSO to use. […] As bacteria for comparison, Gram negative bacteria, for example, E. coli (ATCC 10536 ATCC 25922), Klebsiella pneumonia (ATCC 10031), Proteus vulgaris (ATCC 13315), Pseudomonas aeruginosa (ATCC 9027) and Salmonella typhimurium (ATCC 13311) were used and Gram positive bacteria, for example, Staphylococcus aureus, MRSA (ATCC 33591), Staphylococcus epidermidis (ATCC 12228), Streptococcus pneumonia (ATCC 6301), Mycobacterium ranae (ATCC 110) and Enterococcus faecalis (VRE, ATCC 51575) were used.
(§2) The values in each table show minimum inhibitory concentrations (MIC, μg/ml).

[2] = system: Enterococcus faecalis (VRE, ATCC 51575); assay: Antibacterial test (MIC), comparison bacteria; conditions: Gram positive; for MIC: read-out: minimum inhibitory concentration (MIC)
Experimental: as §1, §2

[3] = system: Pseudomonas aeruginosa (ATCC 9027); assay: Antibacterial test (MIC), comparison bacteria; conditions: for minimum inhibitory concentration (MIC): Gram negative; for MIC: ATCC9027, Gram negative, read-out: minimum inhibitory concentration (MIC)
Experimental: as §1, §2

[4] = system: Salmonella typhimurium (ATCC 13311); assay: Antibacterial test (MIC), comparison bacteria; conditions: Gram negative; for MIC: Salmonella enterica, read-out: minimum inhibitory concentration (MIC)
Experimental: as §1, §2

[5] = system: Staphylococcus aureus (MRSA, ATCC 33591); assay: Antibacterial test (MIC), comparison bacteria; conditions: Gram positive; for MIC: read-out: minimum inhibitory concentration (MIC)
Experimental: as §1, §2

[6] = system: Streptococcus pneumonia (ATCC 6301); assay: Antibacterial test (MIC), comparison bacteria; conditions: for minimum inhibitory concentration (MIC): Gram positive; for MIC: Streptococcus pneumoniae, ATCC6301, Gram positive, read-out: minimum inhibitory concentration (MIC)
Experimental: as §1, §2

[7] = system: Escherichia coli (ATCC 10536); assay: Antibacterial test (MIC), comparison bacteria; conditions: for MIC: ATCC10536, Gram negative, read-out: minimum inhibitory concentration (MIC); for minimum inhibitory concentration (MIC): Gram negative
Experimental: as §1, §2

[8] = system: Escherichia coli (ATCC 25922); assay: Antibacterial test (MIC), comparison bacteria; conditions: for MIC: ATCC25922, Gram negative, read-out: minimum inhibitory concentration (MIC); for minimum inhibitory concentration (MIC): Gram negative
Experimental: as §1, §2

[9] = system: Proteus vulgaris (ATCC 13315); assay: Antibacterial test (MIC), comparison bacteria; conditions: for MIC: ATCC13315, Gram negative, read-out: minimum inhibitory concentration (MIC); for minimum inhibitory concentration (MIC): Gram negative
Experimental: as §1, §2

[10] = system: Klebsiella pneumonia (ATCC 10031); assay: Antibacterial test (MIC), comparison bacteria; conditions: for MIC: Klebsiella pneumoniae, ATCC10031, Gram negative, read-out: minimum inhibitory concentration (MIC); for minimum inhibitory concentration (MIC): Gram negative
Experimental: as §1, §2

[11] = system: Mycobacterium ranae (ATCC 110); assay: Antibacterial test (MIC), comparison bacteria; conditions: for MIC: ATCC110, Gram positive, read-out: minimum inhibitory concentration (MIC); for minimum inhibitory concentration (MIC): Gram positive
Experimental: as §1, §2

[12] = system: Staphylococcus epidermidis (ATCC 12228); assay: Antibacterial test (MIC), comparison bacteria; conditions: for MIC: ATCC12228, Gram positive, read-out: minimum inhibitory concentration (MIC); for minimum inhibitory concentration (MIC): Gram positive
Experimental: as §1, §2

[13] = Columbia agar medium, 37° C., pH 7.0, cultured three days, MIC found on the fourth day
[14] = ATCC43504, 72 h, pH 7, Helicobacter pylori ATCC 43504, Columbia agar medium, 37° C., pH 7.0, cultured three days, MIC found on the fourth day, read-out: minimum inhibitory concentration (MIC)

| minimum inhibitory concentration (MIC) [1, 13] [µg/mL] | minimum inhibitory concentration (MIC) [2] | minimum inhibitory concentration (MIC) [3] | minimum inhibitory concentration (MIC) [4] | minimum inhibitory concentration (MIC) [5] | minimum inhibitory concentration (MIC) [6] | MIC [1, 14] [µg/mL] | MIC [2] [µg/mL] | MIC [7] [µg/mL] | MIC [8] [µg/mL] | MIC [9] [µg/mL] | MIC [3] [µg/mL] | MIC [4] [µg/mL] | MIC [5] [µg/mL] | MIC [6] [µg/mL] | MIC [10] [µg/mL] | MIC [11] [µg/mL] | MIC [12] [µg/mL] | minimum inhibitory concentration (MIC) [7] | minimum inhibitory concentration (MIC) [8] | Compound | also measured |
| --- | --- | --- | --- | --- | --- | --- | --- | --- | --- | --- | --- | --- | --- | --- | --- | --- | --- | --- | --- | --- | --- |
| 0.06 (≈ 0.164 µM) | 0.3 µg/mL (≈ 0.821 µM) | 100< μg/ml | 0.3 µg/mL (≈ 0.821 µM) | 0.1 µg/mL (≈ 0.274 µM) | 0.01 µg/mL (≈ 0.0274 µM) |  |  |  |  |  |  |  |  |  |  |  |  |  |  | CC1(C)S[C@@H]2[C@H](NC(=O)[C@H](N)c3ccc(O)cc3)C(=O)N2[C@H]1C(=O)O [AMPC, Amoxicillin, reference compound] |  |
|  |  |  |  |  |  | 0.1 (≈ 0.134 µM) | 0.1 (≈ 0.134 µM) | 50 (≈ 66.8 µM) | 50 (≈ 66.8 µM) | 100 (≈ 134 µM) | > 100 | 25 (≈ 33.4 µM) | 0.1 (≈ 0.134 µM) | 0.02 (≈ 0.0267 µM) |  |  |  |  |  | CC[C@H]1OC(=O)[C@H](C)[C@@H](O[C@H]2C[C@@](C)(OC)[C@@H](O)[C@H](C)O2)[C@H](C)[C@@H](O[C@@H]2O[C@H](C)C[C@H](N(C)C)[C@H]2O)[C@](C)(OC)C[C@@H](C)C(=O)[C@H](C)[C@@H](O)[C@]1(C)O [CAM, Clarithromycin, reference compound] |  |
|  |  |  |  |  |  | ≤ 0.03 | > 100 | > 100 | > 100 | > 100 | > 100 | > 100 | > 100 | > 100 | > 100 | > 100 | > 100 |  |  | COCCCCSc1ccnc(SCc2nc3ccccc3[nH]2)c1C.Cl [Example 1, 2-[[[4-[(4-methoxy-butyl]thio]-3-methyl-2-pyridyl]thio]methyl]-1H-benzimidazole hydrochloride] |  |
|  |  |  |  |  |  |  | > 100 | > 100 | > 100 | > 100 | > 100 | > 100 | > 100 | > 100 | > 100 | > 100 | > 100 |  |  | Cc1c(SCCCCCCCCO)ccnc1SCc1nc2ccccc2[nH]1 [Example 2, 2-[[[4-[(8-hydroxy-octyl)thio]-3-methyl-2-pyridyl]thio]methyl]-1H-benzimidazole] | MIC ([1]; summary of Tables 2 and 3): 0.003 µg |
|  |  |  |  |  |  | 0.1 | > 100 | > 100 | > 100 | > 100 | > 100 | > 100 | > 100 | > 100 | > 100 | > 100 | > 100 |  |  | COCCCCCCCCSc1ccnc(SCc2nc3ccccc3[nH]2)c1C.Cl [Example 3, 2-[[[4-[(8-methoxy-1-octyl]thio]-3-methyl-2-pyridyl]thio]methyl]-1H-benzimidazole hydrochloride] |  |
|  |  |  |  |  |  | 0.3 | > 100 | > 100 | > 100 | > 100 | > 100 | > 100 | > 100 | > 100 | > 100 | > 100 | > 100 |  |  | CCCOc1ccnc(SCc2nc3ccccc3[nH]2)c1C.Cl [Example 4, 2-[[(4-n-propoxy-3-methyl-2-pyridyl)thio]-methyl]-1H-benzimidazole hydrochloride] |  |
| 3.0 | 100< μg/ml | 100< μg/ml | 100< μg/ml | 100< μg/ml | 100< μg/ml |  |  |  |  |  |  |  |  |  |  |  |  | 100< μg/ml | 100< μg/ml | CSc1ccnc(SCc2nc3ccccc3[nH]2)c1C.Cl [Example 5, 2-[[(4-thiomethyl-3-methyl-2-pyridyl)thio]-methyl]-1H-benzimidazole hydrochloride] | minimum inhibitory concentration (MIC) [10]: 100< μg/ml; minimum inhibitory concentration (MIC) [11]: 100< μg/ml; minimum inhibitory concentration (MIC) [9]: 100< μg/ml; minimum inhibitory concentration (MIC) [12]: 100< μg/ml |
| 0.3 (≈ 0.839 µM) | 100< μg/ml | 100< μg/ml | 100< μg/ml | 100< μg/ml | 100< μg/ml |  |  |  |  |  |  |  |  |  |  |  |  | 100< μg/ml | 100< μg/ml | CCCCCSc1ccnc(SCc2nc3ccccc3[nH]2)c1C [Example 7, 2-[[(4-thiopentyl-3-methyl-2-pyridyl)thio]-methyl]-1H-benzimidazole] | minimum inhibitory concentration (MIC) [10]: 100< μg/ml; minimum inhibitory concentration (MIC) [11]: 100< μg/ml; minimum inhibitory concentration (MIC) [9]: 100< μg/ml; minimum inhibitory concentration (MIC) [12]: 100< μg/ml |
| 0.1 | 100< μg/ml | 100< μg/ml | 100< μg/ml | 100< μg/ml | 100< μg/ml |  |  |  |  |  |  |  |  |  |  |  |  | 100< μg/ml | 100< μg/ml | Cc1c(SCCOCCOCC(F)(F)F)ccnc1SCc1nc2ccccc2[nH]1.Cl [Example 8] | minimum inhibitory concentration (MIC) [10]: 100< μg/ml; minimum inhibitory concentration (MIC) [11]: 100< μg/ml; minimum inhibitory concentration (MIC) [9]: 100< μg/ml; minimum inhibitory concentration (MIC) [12]: 100< μg/ml |
| 0.3 | 100< μg/ml | 100< μg/ml | 100< μg/ml | 100< μg/ml | 100< μg/ml |  |  |  |  |  |  |  |  |  |  |  |  | 100< μg/ml | 100< μg/ml | Cc1c(OCCOCCOCC(F)(F)F)ccnc1SCc1nc2ccccc2[nH]1.Cl [Example 9] | minimum inhibitory concentration (MIC) [10]: 100< μg/ml; minimum inhibitory concentration (MIC) [11]: 100< μg/ml; minimum inhibitory concentration (MIC) [9]: 100< μg/ml; minimum inhibitory concentration (MIC) [12]: 100< μg/ml |
|  |  |  |  |  |  | 0.1 | > 100 | > 100 | > 100 | > 100 | > 100 | > 100 | > 100 | > 100 | > 100 | > 100 | > 100 |  |  | CCCCCOc1ccnc(SCc2nc3ccccc3[nH]2)c1C.Cl [Example 10, 2-[[(4-pentyloxy-3-methyl-2-pyridyl)thio]-methyl]-1H-benzimidazole hydrochloride] |  |
|  |  |  |  |  |  |  | > 100 | > 100 | > 100 | > 100 | > 100 | > 100 | > 100 | > 100 | > 100 | > 100 | > 100 |  |  | COCCCCCCCCOc1ccnc(SCc2nc3ccccc3[nH]2)c1C.Cl [Example 14, 2-[[[4-(8-methoxy-1-octyloxy]-3-methyl-2-pyridyl]thio]-methyl]-1H-benzimidazole hydrochloride] |  |

| Compound | minimum inhibitory concentration (MIC) [1, 13] [µg/mL] | minimum inhibitory concentration (MIC) [2] | minimum inhibitory concentration (MIC) [3] | minimum inhibitory concentration (MIC) [4] | minimum inhibitory concentration (MIC) [5] | minimum inhibitory concentration (MIC) [6] | MIC [1, 14] [µg/mL] | MIC [2] [µg/mL] | MIC [7] [µg/mL] | MIC [8] [µg/mL] | MIC [9] [µg/mL] | MIC [3] [µg/mL] | MIC [4] [µg/mL] | MIC [5] [µg/mL] | MIC [6] [µg/mL] | MIC [10] [µg/mL] | MIC [11] [µg/mL] | MIC [12] [µg/mL] | minimum inhibitory concentration (MIC) [7] | minimum inhibitory concentration (MIC) [8] | also measured |
| --- | --- | --- | --- | --- | --- | --- | --- | --- | --- | --- | --- | --- | --- | --- | --- | --- | --- | --- | --- | --- | --- |
| CCCSc1ccnc(SCc2nc3ccccc3[nH]2)c1C.Cl [Example 6, 2-[[(4-thiopropyl-3-methyl-2-pyridyl)thio]-methyl]-1H-benzimidazole hydrochloride] | 0.3 | 100< μg/ml | 100< μg/ml | 100< μg/ml | 100< μg/ml | 100< μg/ml |  |  |  |  |  |  |  |  |  |  |  |  | 100< μg/ml | 100< μg/ml | minimum inhibitory concentration (MIC) [10]: 100< μg/ml; minimum inhibitory concentration (MIC) [11]: 100< μg/ml; minimum inhibitory concentration (MIC) [9]: 100< μg/ml; minimum inhibitory concentration (MIC) [12]: 100< μg/ml |
